Key:
[1] = target: MAP/microtubule affinity-regulating kinase 3 (Homo sapiens) (UniProt P27448); assay: Inhibition of human MARK3 assessed as residual activity at 1 uM using RBER-CHKtide as substrate in presence of 33P-ATP by ProQinase assay relative to control
[2] = target: Dual serine/threonine and tyrosine protein kinase (Homo sapiens) (UniProt Q6XUX3); assay: Inhibition of human RIPK5 assessed as residual activity at 1 uM using RBER-CHKtide as substrate in presence of 33P-ATP by ProQinase assay relative to control
[3] = target: Myosin light chain kinase, smooth muscle (Homo sapiens) (UniProt Q15746); assay: Inhibition of human MYLK assessed as residual activity at 1 uM using RB-S6P as substrate in presence of 33P-ATP by ProQinase assay relative to control
[4] = target: Hepatocyte growth factor receptor (Homo sapiens) (UniProt P08581); assay: Inhibition of MET (unknown origin) assessed as remaining activity at 1 uM by Kinome scan method relative to control
[5] = target: Death-associated protein kinase 1 (Homo sapiens) (UniProt P53355); assay: Inhibition of human DAPK1 assessed as residual activity at 1 uM using RBER-GSK3 as substrate in presence of 33P-ATP by ProQinase assay relative to control
[6] = target: Serine/threonine-protein kinase VRK1 (Homo sapiens) (UniProt Q99986); assay: Inhibition of human VRK1 assessed as residual activity at 1 uM using RBER-CHKtide as substrate in presence of 33P-ATP by ProQinase assay relative to control
[7] = target: Cyclin-dependent kinase 15 (Homo sapiens) (UniProt Q96Q40); assay: Inhibition of PFTAIRE2 (unknown origin) assessed as remaining activity at 1 uM by Kinome scan method relative to control
[8] = target: Mitogen-activated protein kinase kinase kinase 13 (Homo sapiens) (UniProt O43283); assay: Inhibition of LZK (unknown origin) assessed as remaining activity at 1 uM by Kinome scan method relative to control
[9] = target: Serine/threonine-protein kinase 4 (Homo sapiens) (UniProt Q13043); assay: Inhibition of MST1 (unknown origin) assessed as remaining activity at 1 uM by Kinome scan method relative to control
[10] = test system: Proto-oncogene tyrosine-protein kinase receptor Ret (Homo sapiens), P07949 [M918T]; assay: Inhibition of RET M918T (unknown origin) assessed as remaining activity at 1 uM by Kinome scan method relative to control
[11] = target: Serine/threonine-protein kinase 10 (Homo sapiens) (UniProt O94804); assay: Inhibition of LOK (unknown origin) assessed as remaining activity at 1 uM by Kinome scan method relative to control
[12] = test system: RAF proto-oncogene serine/threonine-protein kinase (Homo sapiens), P04049 [Y340D,Y341D]; assay: Inhibition of human RAF1 Y340D/Y341D double mutant assessed as residual activity at 1 uM using MEK1-K97M as substrate in presence of 33P-ATP by ProQinase assay relative to control
[13] = Anti-inflammatory activity against human derived medium respond PBMC cells assessed as inhibition in stimulated IL-1alpha cytokine release incubated for 2 hrs in the presence of LPS/SEB/aCD28 by Luminex based sandwich immunoassay; type: functional, cell-based
[14] = test system: Receptor-type tyrosine-protein kinase FLT3 (Homo sapiens), P36888 [D835Y]; assay: Inhibition of FLT3 D835Y mutant (unknown origin) assessed as remaining activity at 1 uM by Kinome scan method relative to control
[15] = target: Mitogen-activated protein kinase 8 (Homo sapiens) (UniProt P45983); assay: Inhibition of human JNK1 assessed as residual activity at 1 uM using ATF2 as substrate in presence of 33P-ATP by ProQinase assay relative to control
[16] = target: Angiopoietin-1 receptor (Homo sapiens) (UniProt Q02763); assay: Inhibition of human TIE2 assessed as residual activity at 1 uM using polyEY as substrate in presence of 33P-ATP by ProQinase assay relative to control
[17] = target: Receptor tyrosine-protein kinase erbB-4 (Homo sapiens) (UniProt Q15303); assay: Inhibition of human ERBB4 assessed as residual activity at 1 uM using polyEy as substrate in presence of 33P-ATP by ProQinase assay relative to control
[18] = target: Serine/threonine-protein kinase pim-1 (Homo sapiens) (UniProt P11309); assay: Inhibition of PIM1 (unknown origin) assessed as remaining activity at 1 uM by Kinome scan method relative to control
[19] = target: Serine/threonine-protein kinase Chk2 (Homo sapiens) (UniProt O96017); assay: Inhibition of human CHK2 assessed as residual activity at 1 uM using bio-4xCHKT as substrate in presence of 33P-ATP by ProQinase assay relative to control
[20] = target: Eukaryotic translation initiation factor 2-alpha kinase 1 (Homo sapiens) (UniProt Q9BQI3); assay: Inhibition of human HRI assessed as residual activity at 1 uM using casein as substrate in presence of 33P-ATP by ProQinase assay relative to control
[21] = test system: Leucine-rich repeat serine/threonine-protein kinase 2 (Homo sapiens), Q5S007 [R1441C]; assay: Inhibition of human LRRK2 R1441C mutant assessed as residual activity at 1 uM using RBER-CHKtide as substrate in presence of 33P-ATP by ProQinase assay relative to control
[22] = target: Ribosomal protein S6 kinase alpha-5 (Homo sapiens) (UniProt O75582); assay: Inhibition of N-terminal kinase domain RPS6KA5 (unknown origin) assessed as remaining activity at 1 uM by Kinome scan method relative to control
[23] = target: CDK1/Cyclin E (Homo sapiens) (UniProt P06493+P24864); assay: Inhibition of human CDK1/Cyclin E1 assessed as residual activity at 1 uM using RBER-CHKtide as substrate in presence of 33P-ATP by ProQinase assay relative to control; type: protein-complex assay
[24] = target: Glycogen synthase kinase-3 alpha (Homo sapiens) (UniProt P49840); assay: Inhibition of human GSK3alpha assessed as residual activity at 1 uM using SUPT5 754-837 as substrate in presence of 33P-ATP by ProQinase assay relative to control

Sequence of CDK1/Cyclin E (Homo sapiens) (P06493 whole entry, looked up): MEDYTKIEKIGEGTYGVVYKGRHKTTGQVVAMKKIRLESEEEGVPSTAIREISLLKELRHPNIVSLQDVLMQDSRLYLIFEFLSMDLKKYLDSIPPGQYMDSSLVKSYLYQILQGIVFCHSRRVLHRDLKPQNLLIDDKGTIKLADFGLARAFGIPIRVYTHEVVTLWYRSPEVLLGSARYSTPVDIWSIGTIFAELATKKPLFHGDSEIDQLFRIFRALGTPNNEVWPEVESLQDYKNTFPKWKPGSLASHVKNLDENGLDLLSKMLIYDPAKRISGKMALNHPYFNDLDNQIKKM
Sequence of CDK1/Cyclin E (Homo sapiens) (P24864 whole entry, looked up): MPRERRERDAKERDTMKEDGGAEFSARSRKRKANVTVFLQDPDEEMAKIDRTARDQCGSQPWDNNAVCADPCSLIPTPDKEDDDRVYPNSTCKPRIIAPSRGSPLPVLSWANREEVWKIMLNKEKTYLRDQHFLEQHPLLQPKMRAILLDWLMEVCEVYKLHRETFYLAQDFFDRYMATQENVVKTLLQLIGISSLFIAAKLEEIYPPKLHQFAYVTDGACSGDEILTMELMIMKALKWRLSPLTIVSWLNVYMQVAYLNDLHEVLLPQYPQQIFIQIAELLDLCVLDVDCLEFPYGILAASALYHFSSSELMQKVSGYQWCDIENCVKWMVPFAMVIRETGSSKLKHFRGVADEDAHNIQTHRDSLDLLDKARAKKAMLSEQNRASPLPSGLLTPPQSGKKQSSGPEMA
Sequence of Leucine-rich repeat serine/threonine-protein kinase 2 (Homo sapiens), Q5S007 [R1441C] (Q5S007 whole entry R1441C, the tested form may be a part): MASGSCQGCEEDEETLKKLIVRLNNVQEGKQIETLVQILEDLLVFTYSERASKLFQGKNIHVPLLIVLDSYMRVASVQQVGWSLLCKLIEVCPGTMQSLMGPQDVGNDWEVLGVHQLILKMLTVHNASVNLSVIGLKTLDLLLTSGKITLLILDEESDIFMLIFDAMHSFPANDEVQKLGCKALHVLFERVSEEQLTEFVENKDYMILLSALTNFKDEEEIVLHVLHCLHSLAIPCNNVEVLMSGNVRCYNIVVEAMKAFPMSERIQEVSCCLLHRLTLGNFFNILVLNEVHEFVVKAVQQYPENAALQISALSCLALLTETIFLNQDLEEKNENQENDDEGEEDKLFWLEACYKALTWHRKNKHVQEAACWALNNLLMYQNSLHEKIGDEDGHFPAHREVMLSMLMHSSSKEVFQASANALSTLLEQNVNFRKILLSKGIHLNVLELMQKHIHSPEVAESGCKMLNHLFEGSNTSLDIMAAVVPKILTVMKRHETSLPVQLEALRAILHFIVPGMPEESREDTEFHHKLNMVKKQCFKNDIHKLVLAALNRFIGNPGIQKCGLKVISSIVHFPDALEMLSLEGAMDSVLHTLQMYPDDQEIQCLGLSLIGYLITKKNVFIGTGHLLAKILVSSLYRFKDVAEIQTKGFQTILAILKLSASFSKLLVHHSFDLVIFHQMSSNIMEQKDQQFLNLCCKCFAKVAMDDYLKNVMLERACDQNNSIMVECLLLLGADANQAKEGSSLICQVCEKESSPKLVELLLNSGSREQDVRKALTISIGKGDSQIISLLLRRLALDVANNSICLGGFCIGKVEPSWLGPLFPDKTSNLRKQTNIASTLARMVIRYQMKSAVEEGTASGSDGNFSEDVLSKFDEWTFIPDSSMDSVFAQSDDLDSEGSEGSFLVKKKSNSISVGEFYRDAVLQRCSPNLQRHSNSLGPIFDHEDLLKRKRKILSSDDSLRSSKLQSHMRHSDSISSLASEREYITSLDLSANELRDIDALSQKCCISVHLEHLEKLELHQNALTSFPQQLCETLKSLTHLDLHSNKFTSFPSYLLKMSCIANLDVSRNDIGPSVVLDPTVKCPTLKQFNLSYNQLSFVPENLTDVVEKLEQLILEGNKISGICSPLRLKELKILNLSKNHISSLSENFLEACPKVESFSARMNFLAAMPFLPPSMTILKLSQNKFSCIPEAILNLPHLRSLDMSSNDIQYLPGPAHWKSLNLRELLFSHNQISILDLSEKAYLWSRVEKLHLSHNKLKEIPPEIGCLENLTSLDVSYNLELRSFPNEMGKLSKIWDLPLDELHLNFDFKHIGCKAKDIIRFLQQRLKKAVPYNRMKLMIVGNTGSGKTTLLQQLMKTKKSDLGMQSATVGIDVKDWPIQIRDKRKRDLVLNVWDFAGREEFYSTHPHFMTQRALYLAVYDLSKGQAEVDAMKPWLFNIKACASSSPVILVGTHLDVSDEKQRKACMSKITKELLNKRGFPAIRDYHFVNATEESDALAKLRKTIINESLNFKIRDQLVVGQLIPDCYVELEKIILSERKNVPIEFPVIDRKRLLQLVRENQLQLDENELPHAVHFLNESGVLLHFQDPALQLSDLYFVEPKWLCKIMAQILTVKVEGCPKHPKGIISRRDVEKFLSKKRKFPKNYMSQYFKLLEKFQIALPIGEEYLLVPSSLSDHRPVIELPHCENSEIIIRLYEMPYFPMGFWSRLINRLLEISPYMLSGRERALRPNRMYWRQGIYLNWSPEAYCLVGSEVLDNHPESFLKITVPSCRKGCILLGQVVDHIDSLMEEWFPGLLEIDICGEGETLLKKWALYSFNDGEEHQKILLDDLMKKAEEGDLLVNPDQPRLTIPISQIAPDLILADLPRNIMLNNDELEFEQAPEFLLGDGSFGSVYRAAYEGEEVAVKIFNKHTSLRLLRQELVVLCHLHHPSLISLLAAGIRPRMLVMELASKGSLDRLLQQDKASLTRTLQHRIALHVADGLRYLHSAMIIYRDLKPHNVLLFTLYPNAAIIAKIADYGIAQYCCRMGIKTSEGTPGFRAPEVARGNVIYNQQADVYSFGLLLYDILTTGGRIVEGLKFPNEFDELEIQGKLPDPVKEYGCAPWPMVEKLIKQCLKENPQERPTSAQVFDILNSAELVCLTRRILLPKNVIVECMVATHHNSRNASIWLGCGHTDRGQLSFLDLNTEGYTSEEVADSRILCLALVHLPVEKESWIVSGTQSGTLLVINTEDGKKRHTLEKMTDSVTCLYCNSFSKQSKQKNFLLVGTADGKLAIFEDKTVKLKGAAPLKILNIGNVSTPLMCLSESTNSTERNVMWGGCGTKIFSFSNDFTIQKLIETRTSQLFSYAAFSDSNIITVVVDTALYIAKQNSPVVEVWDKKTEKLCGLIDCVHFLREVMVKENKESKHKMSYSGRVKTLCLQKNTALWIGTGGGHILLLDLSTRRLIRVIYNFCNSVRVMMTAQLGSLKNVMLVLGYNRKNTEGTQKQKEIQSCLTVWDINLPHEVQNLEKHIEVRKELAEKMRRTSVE
Sequence of Mitogen-activated protein kinase 8 (Homo sapiens) (P45983 whole entry): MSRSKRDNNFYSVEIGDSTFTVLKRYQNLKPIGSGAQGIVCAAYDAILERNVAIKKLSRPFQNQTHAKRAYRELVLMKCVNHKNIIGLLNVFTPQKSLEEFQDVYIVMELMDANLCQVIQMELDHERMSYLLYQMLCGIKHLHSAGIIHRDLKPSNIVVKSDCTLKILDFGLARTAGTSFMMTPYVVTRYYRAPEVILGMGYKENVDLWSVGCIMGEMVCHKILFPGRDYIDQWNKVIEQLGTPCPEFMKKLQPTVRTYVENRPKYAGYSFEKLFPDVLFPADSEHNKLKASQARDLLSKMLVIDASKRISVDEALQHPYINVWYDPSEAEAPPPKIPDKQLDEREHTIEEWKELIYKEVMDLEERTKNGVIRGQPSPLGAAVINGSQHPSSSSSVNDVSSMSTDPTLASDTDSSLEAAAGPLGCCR
Sequence of Cyclin-dependent kinase 15 (Homo sapiens) (Q96Q40 whole entry): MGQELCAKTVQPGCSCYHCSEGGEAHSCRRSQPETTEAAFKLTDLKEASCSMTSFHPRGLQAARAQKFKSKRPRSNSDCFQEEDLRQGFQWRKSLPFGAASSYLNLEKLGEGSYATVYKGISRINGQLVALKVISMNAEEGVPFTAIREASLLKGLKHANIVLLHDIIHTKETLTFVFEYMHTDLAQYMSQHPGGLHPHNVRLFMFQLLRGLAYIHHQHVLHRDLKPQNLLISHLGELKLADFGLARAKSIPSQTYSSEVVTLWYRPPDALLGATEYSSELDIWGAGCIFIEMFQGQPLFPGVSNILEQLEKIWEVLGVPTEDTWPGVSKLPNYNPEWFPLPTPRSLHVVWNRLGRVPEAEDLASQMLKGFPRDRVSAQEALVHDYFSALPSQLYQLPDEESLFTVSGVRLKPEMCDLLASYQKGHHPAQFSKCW
Sequence of Serine/threonine-protein kinase Chk2 (Homo sapiens) (O96017 whole entry): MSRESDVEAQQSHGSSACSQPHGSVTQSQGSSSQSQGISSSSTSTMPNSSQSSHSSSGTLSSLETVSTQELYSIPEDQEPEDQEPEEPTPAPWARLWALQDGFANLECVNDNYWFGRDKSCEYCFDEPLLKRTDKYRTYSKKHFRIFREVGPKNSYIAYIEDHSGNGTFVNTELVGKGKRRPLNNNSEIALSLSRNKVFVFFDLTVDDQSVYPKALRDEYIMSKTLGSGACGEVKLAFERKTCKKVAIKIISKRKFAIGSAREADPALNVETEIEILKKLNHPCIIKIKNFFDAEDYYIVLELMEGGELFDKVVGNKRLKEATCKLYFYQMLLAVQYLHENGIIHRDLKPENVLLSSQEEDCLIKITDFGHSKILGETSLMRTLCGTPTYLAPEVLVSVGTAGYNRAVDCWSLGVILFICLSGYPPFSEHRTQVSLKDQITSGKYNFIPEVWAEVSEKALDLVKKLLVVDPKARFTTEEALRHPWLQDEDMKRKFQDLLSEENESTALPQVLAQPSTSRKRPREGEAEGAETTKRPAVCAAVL
Sequence of Serine/threonine-protein kinase VRK1 (Homo sapiens) (Q99986 whole entry): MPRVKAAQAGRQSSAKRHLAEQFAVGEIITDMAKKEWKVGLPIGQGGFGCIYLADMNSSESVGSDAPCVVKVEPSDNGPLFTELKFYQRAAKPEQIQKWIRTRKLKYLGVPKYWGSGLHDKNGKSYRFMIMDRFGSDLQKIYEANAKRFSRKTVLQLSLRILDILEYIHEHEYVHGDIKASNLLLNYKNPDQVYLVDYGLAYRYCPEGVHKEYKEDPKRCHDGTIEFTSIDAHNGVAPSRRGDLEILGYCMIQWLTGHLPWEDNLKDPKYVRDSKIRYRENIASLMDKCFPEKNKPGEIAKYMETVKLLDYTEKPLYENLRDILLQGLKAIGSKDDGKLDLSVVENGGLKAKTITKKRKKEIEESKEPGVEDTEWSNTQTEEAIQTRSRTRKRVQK

SMILES: O=C1c2ccc(Nc3ccc(F)cc3F)cc2CCc2ccc(OC[C@H](O)CO)cc21 [Skepinone-L]
- Activity [1]: 95%
- Activity [2]: 95%
- Activity [3]: 78%
- Activity [4]: 100%
- Activity [5]: 86%
- Activity [6]: 88%
- Activity [7]: 85%
- Activity [8]: 100%
- Activity [9]: 100%
- Activity [10]: 100%
- Activity [11]: 96%
- Activity [12]: 91%
- IC50 [13]: 370 nM
- Activity [14]: 98%
- Activity [15]: 98%
- Activity [16]: 98%
- Activity [17]: 106%
- Activity [18]: 100%
- Activity [19]: 89%
- Activity [20]: 106%
- Activity [21]: 89%
- Activity [22]: 95%
- Activity [23]: 87%
- Activity [24]: 93%
